From patent publication US12264134B2 (Merck Sharp & Dohme LLC, priority 2018, dated 2025)
Like-named read-outs stand apart in the source and are kept apart here.

Biological target: IDO1 (Homo sapiens, UniProt P14902)
Test: IDO1 Cellular Assay in HeLa Cells Stimulated with IFNγ
Assay type: cell-based
[1] = read-out: HeLa Cell Potency, IC50

Chain of IDO1 (P14902 whole entry): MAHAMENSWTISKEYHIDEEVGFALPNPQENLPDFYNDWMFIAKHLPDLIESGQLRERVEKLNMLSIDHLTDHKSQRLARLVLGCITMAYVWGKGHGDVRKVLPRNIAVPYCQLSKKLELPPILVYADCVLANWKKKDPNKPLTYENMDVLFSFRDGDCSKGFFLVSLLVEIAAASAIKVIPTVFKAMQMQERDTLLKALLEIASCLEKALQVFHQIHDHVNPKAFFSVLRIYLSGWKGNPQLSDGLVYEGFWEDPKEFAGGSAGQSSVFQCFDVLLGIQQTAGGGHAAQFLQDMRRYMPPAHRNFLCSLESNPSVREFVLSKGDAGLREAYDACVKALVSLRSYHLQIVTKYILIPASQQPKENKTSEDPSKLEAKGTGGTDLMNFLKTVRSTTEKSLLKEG

Structure (SMILES)	IC50 (HeLa Cell Potency, IC50 (nM)) [nM]	IC50 [1] [nM]
Cc1cccc(N2CCN(C(=O)Cn3nc(C(=O)N4CCC(=O)CC4)c4c3C[C@H]3C[C@@H]43)CC2)c1C [Example 265, 1-[(3bR,4aR)-1-{2-[4-(2,3-dimethylphenyl)piperazin-1-yl]-2-oxoethyl}-3b,4,4a,5-tetrahydro-1H-cyclopropa[3,4]cyclopenta[1,2-c]pyrazole-3-carbonyl]piperidin-4-one]	< 0.51	–
Cc1cccc(N2CCN(C(=O)Cn3nc(C(=O)N4CC[S+]([O-])CC4)c4c3C[C@H]3C[C@@H]43)CC2)c1C [Example 266, 4-[(3bR,4aR)-1-{2-[4-(2,3-dimethylphenyl)piperazin-1-yl]-2-oxoethyl}-3b,4,4a,5-tetrahydro-1H-cyclopropa[3,4]cyclopenta[1,2-c]pyrazole-3-carbonyl]-1lambda~4~,4-thiazinan-1-one]	–	5.73
Cc1cccc(N2CCN(C(=O)Cn3nc(C(=O)N4CCOCC4CO)c4c3C[C@H]3C[C@@H]43)CC2)c1C (stereo partly drawn) [Example 267, 1-[4-(2,3-dimethylphenyl)piperazin-1-yl]-2-{(3bR,4aR)-3-[3-(hydroxymethyl)morpholine-4-carbonyl]-3b,4,4a,5-tetrahydro-1H-cyclopropa[3,4]cyclopenta[1,2-c]pyrazol-1-yl}ethan-1-one]	–	7.91
Cc1cccc(N2CCN(C(=O)Cn3nc(C(=O)N4CCC5(CC4)COC(CO)C5)c4c3C[C@H]3C[C@@H]43)CC2)c1C (stereo partly drawn) [Example 268, 1-[4-(2,3-dimethylphenyl)piperazin-1-yl]-2-{(3bR,4aR)-3-[3-(hydroxymethyl)-2-oxa-8-azaspiro[4.5]decane-8-carbonyl]-3b,4,4a,5-tetrahydro-1H-cyclopropa[3,4]cyclopenta[1,2-c]pyrazol-1-yl}ethan-1-one]	–	1.25
Cc1cccc(N2CCN(C(=O)Cn3nc(C(=O)N4CCS(=N)(=O)CC4)c4c3C[C@H]3C[C@@H]43)CC2)c1C [Example 269, 4-[(3bR,4aR)-1-{2-[4-(2,3-dimethylphenyl)piperazin-1-yl]-2-oxoethyl}-3b,4,4a,5-tetrahydro-1H-cyclopropa[3,4]cyclopenta[1,2-c]pyrazole-3-carbonyl]-1-imino-1lambda~6~,4-thiazinan-1-one]	–	38.6
Cc1cccc(N2CCN(C(=O)Cn3nc(C(=O)N4CC5CCC(C4)N5C)c4c3C[C@H]3C[C@@H]43)CC2)c1C [Example 270, 1-[4-(2,3-dimethylphenyl)piperazin-1-yl]-2-[(3bR,4aR)-3-(8-methyl-3,8-diazabicyclo[3.2.1]octane-3-carbonyl)-3b,4,4a,5-tetrahydro-1H-cyclopropa[3,4]cyclopenta[1,2-c]pyrazol-1-yl]ethan-1-one]	–	5.75
Cc1cccc(N2CCN(C(=O)Cn3nc(C(=O)N4CCCCC4C(C)(C)O)c4c3C[C@H]3C[C@@H]43)CC2)c1C (stereo partly drawn) [Example 271, 1-[4-(2,3-dimethylphenyl)piperazin-1-yl]-2-{(3bR,4aR)-3-[2-(2-hydroxypropan-2-yl)piperidine-1-carbonyl]-3b,4,4a,5-tetrahydro-1H-cyclopropa[3,4]cyclopenta[1,2-c]pyrazol-1-yl}ethan-1-one]	–	3.66
Cc1cccc(N2CCN(C(=O)Cn3nc(C(=O)N4CCCC(NC(N)=O)C4)c4c3C[C@H]3C[C@@H]43)CC2)c1C (stereo partly drawn) [Example 272, N-{1-[(3bR,4aR)-1-{2-[4-(2,3-dimethylphenyl)piperazin-1-yl]-2-oxoethyl}-3b,4,4a,5-tetrahydro-1H-cyclopropa[3,4]cyclopenta[1,2-c]pyrazole-3-carbonyl]piperidin-3-yl}urea]	–	16.3
Cc1cccc(N2CCN(C(=O)Cn3nc(C(=O)N4CCC5C(C4)NC(=O)N5C)c4c3C[C@H]3C[C@@H]43)CC2)c1C (stereo partly drawn) [Example 273, 5-[(3bR,4aR)-1-{2-[4-(2,3-dimethylphenyl)piperazin-1-yl]-2-oxoethyl}-3b,4,4a,5-tetrahydro-1H-cyclopropa[3,4]cyclopenta[1,2-c]pyrazole-3-carbonyl]-1-methyloctahydro-2H-imidazo[4,5-c]pyridin-2-one]	–	38.7
Cc1cccc(N2CCN(C(=O)Cn3nc(C(=O)N4CCOCC4CO)c4c3C[C@H]3C[C@@H]43)CC2)c1C (stereo partly drawn) [Example 274, 1-[4-(2,3-dimethylphenyl)piperazin-1-yl]-2-{(3bR,4aR)-3-[3-(hydroxymethyl)morpholine-4-carbonyl]-3b,4,4a,5-tetrahydro-1H-cyclopropa[3,4]cyclopenta[1,2-c]pyrazol-1-yl}ethan-1-one]	–	6.37
Cc1cccc(N2CCN(C(=O)Cn3nc(C(=O)N4CCC5(CC4)COC(CO)C5)c4c3C[C@H]3C[C@@H]43)CC2)c1C (stereo partly drawn) [Example 275, 1-[4-(2,3-dimethylphenyl)piperazin-1-yl]-2-{(3bR,4aR)-3-[3-(hydroxymethyl)-2-oxa-8-azaspiro[4.5]decane-8-carbonyl]-3b,4,4a,5-tetrahydro-1H-cyclopropa[3,4]cyclopenta[1,2-c]pyrazol-1-yl}ethan-1-one]	–	0.8
Cc1cccc(N2CCN(C(=O)Cn3nc(C(=O)N4CCC(OCCO)CC4)c4c3C[C@H]3C[C@@H]43)CC2)c1C [Example 277, 1-[4-(2,3-dimethylphenyl)piperazin-1-yl]-2-{(3bR,4aR)-3-[4-(2-hydroxyethoxy)piperidine-1-carbonyl]-3b,4,4a,5-tetrahydro-1H-cyclopropa[3,4]cyclopenta[1,2-c]pyrazol-1-yl}ethan-1-one]	–	< 0.51
Cc1cccc(N2CCN(C(=O)Cn3nc(C(=O)N4CC[C@H](O)[C@@H](C)C4)c4c3C[C@H]3C[C@@H]43)CC2)c1C [Example 282, 1-[4-(2,3-dimethylphenyl)piperazin-1-yl]-2-{(3bR,4aR)-3-[(3S,4S)-4-hydroxy-3-methylpiperidine-1-carbonyl]-3b,4,4a,5-tetrahydro-1H-cyclopropa[3,4]cyclopenta[1,2-c]pyrazol-1-yl}ethan-1-one]	–	0.97
Cc1cccc(N2CCN(C(=O)Cn3nc(C(=O)N4CCN(C(=O)CO)CC4)c4c3CC3CC43)CC2)c1C (stereo not drawn) [Example 287, 1-[4-(2,3-dimethylphenyl)piperazin-1-yl]-2-{3-[4-(hydroxyacetyl)piperazine-1-carbonyl]-3b,4,4a,5-tetrahydro-1H-cyclopropa[3,4]cyclopenta[1,2-c]pyrazol-1-yl}ethan-1-one]	–	1.64
Cc1cccc(N2CCN(C(=O)Cn3nc(C(=O)N4C[C@H](O)C[C@H]4C)c4c3C[C@H]3C[C@@H]43)CC2)c1C [Example 292, 1-[4-(2,3-dimethylphenyl)piperazin-1-yl]-2-{(3bR,4aR)-3-[(2R,4R)-4-hydroxy-2-methylpyrrolidine-1-carbonyl]-3b,4,4a,5-tetrahydro-1H-cyclopropa[3,4]cyclopenta[1,2-c]pyrazol-1-yl}ethan-1-one]	–	3.7
Cc1cccc(N2CCN(C(=O)Cn3nc(C(=O)N4C[C@@H](C)O[C@@H](C)C4)c4c3CC[C@@H](C(F)(F)F)C4)CC2)c1C [Example 295, 2-[(5R)-3-[(2R,6S)-2,6-dimethylmorpholine-4-carbonyl]-5-(trifluoromethyl)-4,5,6,7-tetrahydro-1H-indazol-1-yl]-1-[4-(2,3-dimethylphenyl)piperazin-1-yl]ethan-1-one]	–	6.69
Cc1cccc(N2CCN(C(=O)Cn3nc(C(=O)N4CC[C@@H](O)[C@@H](F)C4)c4c3C[C@@H]3C[C@H]43)CC2)c1C [Example 298, 1-[4-(2,3-dimethylphenyl)piperazin-1-yl]-2-{(3bS,4aS)-3-[(3S,4R)-3-fluoro-4-hydroxypiperidine-1-carbonyl]-3b,4,4a,5-tetrahydro-1H-cyclopropa[3,4]cyclopenta[1,2-c]pyrazol-1-yl}ethan-1-one]	–	14.3
Cc1cccc(N2CCN(C(=O)Cn3nc(C(=O)N4C[C@@H](C)O[C@@H](C)C4)c4c3C[C@@H]3C[C@H]43)CC2)c1C [Example 299, 2-{(3bS,4aS)-3-[(2R,6S)-2,6-dimethylmorpholine-4-carbonyl]-3b,4,4a,5-tetrahydro-1H-cyclopropa[3,4]cyclopenta[1,2-c]pyrazol-1-yl}-1-[4-(2,3-dimethylphenyl)piperazin-1-yl]ethan-1-one]	–	15.1
Cc1cccc(N2CCN(C(=O)Cn3nc(C(=O)N4CCC(F)(CO)C4)c4c3CCC4)CC2)c1C (stereo not drawn) [Example 300, 1-[4-(2,3-dimethylphenyl)piperazin-1-yl]-2-{3-[3-fluoro-3-(hydroxymethyl)pyrrolidine-1-carbonyl]-5,6-dihydrocyclopenta[c]pyrazol-1(4H)-yl}ethan-1-one]	–	16.9
Cc1cccc(N2CCN(C(=O)Cn3nc(C(=O)N4CC5(CO)CC4C5)c4c3CCC4)CC2)c1C [Example 301, 1-[4-(2,3-dimethylphenyl)piperazin-1-yl]-2-{3-[4-(hydroxymethyl)-2-azabicyclo[2.1.1]hexane-2-carbonyl]-5,6-dihydrocyclopenta[c]pyrazol-1(4H)-yl}ethan-1-one]	–	17.1
Cc1cccc(N2CCN(C(=O)Cn3nc(C(=O)N4C[C@@H](C)O[C@@H](C)C4)c4c3CC[C@H](C(F)(F)F)C4)CC2)c1C [Example 302, 2-[(5S)-3-[(2R,6S)-2,6-dimethylmorpholine-4-carbonyl]-5-(trifluoromethyl)-4,5,6,7-tetrahydro-1H-indazol-1-yl]-1-[4-(2,3-dimethylphenyl)piperazin-1-yl]ethan-1-one]	–	24.9
Cc1cccc(N2CCN(C(=O)Cn3nc(C(=O)N4C[C@@H](C)O[C@@H](C)C4)c4c3CCC(C(F)(F)F)C4)CC2)c1C (stereo partly drawn) [Example 303, 2-{3-[(2R,6S)-2,6-dimethylmorpholine-4-carbonyl]-5-(trifluoromethyl)-4,5,6,7-tetrahydro-1H-indazol-1-yl}-1-[4-(2,3-dimethylphenyl)piperazin-1-yl]ethan-1-one]	–	29.9
Cc1cccc(N2CCN(C(=O)Cn3nc(C(=O)N4CC[C@@H](O)[C@@H](F)C4)c4c3CCC3(C4)CC3(F)F)CC2)c1C (stereo partly drawn) [Example 304, 2-{2,2-difluoro-3′-[(3S,4R)-3-fluoro-4-hydroxypiperidine-1-carbonyl]-6′,7′-dihydrospiro[cyclopropane-1,5-indazol]-1′(′4H)-yl}-1-[4-(2,3-dimethylphenyl)piperazin-1-yl]ethan-1-one]	–	30.2
Cc1cccc(N2CCN(C(=O)Cn3nc(C(=O)N4CC5(CC(O)C5)C4)c4c3CCC4)CC2)c1C [Example 305, 1-[4-(2,3-dimethylphenyl)piperazin-1-yl]-2-[3-(6-hydroxy-2-azaspiro[3.3]heptane-2-carbonyl)-5,6-dihydrocyclopenta[c]pyrazol-1(4H)-yl]ethan-1-one]	–	48
